Test system: not listed separately
Experiment: Cytotoxicity against human NALM6 cells after 72 hrs by Cell-Titer Glo assay
Type: functional, cell-based
Settings: NALM-6, 72 h

Structure (SMILES)	EC50 [µM]
CCOC(=O)/C(C)=C/c1cc(/C=C/[C@](C)(/C=C/c2ccc(OC)cc2)CCC=C(C)C)ccc1O	> 43.5
C=C[C@@](C)(/C=C/c1ccc(O)c(/C=C(\C)C(=O)OCC)c1)CCC=C(C)C	> 7.51
C=C[C@@](C)(/C=C/c1ccc(OC)cc1)CCC=C(C)C	> 43.5
C=C[C@@](C)(/C=C/c1ccc(O)cc1)CCC=O	> 43.5
C=C[C@@](C)(/C=C/c1ccc(O)cc1)CC/C=C(\C)C=O	12.6
COc1ccc(/C=C/[C@@](C)(/C=C/c2ccc(O)c(/C=C/C(=O)OCc3ccccc3)c2)CCC=C(C)C)cc1	> 43.5
COc1ccc(/C=C/[C@@](C)(/C=C/c2ccc(O)c(C=O)c2)CCC=C(C)C)cc1	> 43.5
C=C[C@@](C)(/C=C/c1ccc(O)cc1)CCC(O)C(C)(C)O (stereo partly specified)	> 43.5

Test system: Jurkat
Experiment: Cytotoxicity against human Jurkat cells after 72 hrs by Cell-Titer Glo assay
Type: functional, cell-based
Settings: not given

Structure (SMILES)	EC50 [µM]
CCOC(=O)/C(C)=C/c1cc(/C=C/[C@](C)(/C=C/c2ccc(OC)cc2)CCC=C(C)C)ccc1O	> 49
C=C[C@@](C)(/C=C/c1ccc(O)c(/C=C(\C)C(=O)OCC)c1)CCC=C(C)C	> 49
C=C[C@@](C)(/C=C/c1ccc(OC)cc1)CCC=C(C)C	> 49
C=C[C@@](C)(/C=C/c1ccc(O)cc1)CCC=O	> 49
C=C[C@@](C)(/C=C/c1ccc(O)cc1)CC/C=C(\C)C=O	> 49
COc1ccc(/C=C/[C@@](C)(/C=C/c2ccc(O)c(/C=C/C(=O)OCc3ccccc3)c2)CCC=C(C)C)cc1	> 49
COc1ccc(/C=C/[C@@](C)(/C=C/c2ccc(O)c(C=O)c2)CCC=C(C)C)cc1	> 49
C=C[C@@](C)(/C=C/c1ccc(O)cc1)CCC(O)C(C)(C)O (stereo partly specified)	> 49

Test system: Raji
Experiment: Cytotoxicity against human Raji cells after 72 hrs by Cell-Titer Glo assay
Type: functional, cell-based
Settings: not given

Structure (SMILES)	EC50 [µM]
CCOC(=O)/C(C)=C/c1cc(/C=C/[C@](C)(/C=C/c2ccc(OC)cc2)CCC=C(C)C)ccc1O	> 26
C=C[C@@](C)(/C=C/c1ccc(O)c(/C=C(\C)C(=O)OCC)c1)CCC=C(C)C	> 26
C=C[C@@](C)(/C=C/c1ccc(OC)cc1)CCC=C(C)C	> 26
C=C[C@@](C)(/C=C/c1ccc(O)cc1)CCC=O	> 26
C=C[C@@](C)(/C=C/c1ccc(O)cc1)CC/C=C(\C)C=O	> 26
COc1ccc(/C=C/[C@@](C)(/C=C/c2ccc(O)c(/C=C/C(=O)OCc3ccccc3)c2)CCC=C(C)C)cc1	> 26
COc1ccc(/C=C/[C@@](C)(/C=C/c2ccc(O)c(C=O)c2)CCC=C(C)C)cc1	13
C=C[C@@](C)(/C=C/c1ccc(O)cc1)CCC(O)C(C)(C)O (stereo partly specified)	> 26

Test system: BJ
Experiment: Cytotoxicity against human BJ cells after 72 hrs by Cell-Titer Glo assay
Type: cell-based
Settings: not given

Structure (SMILES)	EC50 [µM]
CCOC(=O)/C(C)=C/c1cc(/C=C/[C@](C)(/C=C/c2ccc(OC)cc2)CCC=C(C)C)ccc1O	> 36.6
C=C[C@@](C)(/C=C/c1ccc(O)c(/C=C(\C)C(=O)OCC)c1)CCC=C(C)C	> 36.6
C=C[C@@](C)(/C=C/c1ccc(OC)cc1)CCC=C(C)C	> 36.6
C=C[C@@](C)(/C=C/c1ccc(O)cc1)CCC=O	> 36.6
C=C[C@@](C)(/C=C/c1ccc(O)cc1)CC/C=C(\C)C=O	> 36.6
COc1ccc(/C=C/[C@@](C)(/C=C/c2ccc(O)c(/C=C/C(=O)OCc3ccccc3)c2)CCC=C(C)C)cc1	> 36.6
COc1ccc(/C=C/[C@@](C)(/C=C/c2ccc(O)c(C=O)c2)CCC=C(C)C)cc1	9.8
C=C[C@@](C)(/C=C/c1ccc(O)cc1)CCC(O)C(C)(C)O (stereo partly specified)	> 36.6

Test system: HepG2
Experiment: Cytotoxicity against human HepG2 cells after 72 hrs by Cell-Titer Glo assay
Type: functional, cell-based
Settings: HepG2, 72 h

Structure (SMILES)	EC50 [µM]
CCOC(=O)/C(C)=C/c1cc(/C=C/[C@](C)(/C=C/c2ccc(OC)cc2)CCC=C(C)C)ccc1O	> 52.1
C=C[C@@](C)(/C=C/c1ccc(O)c(/C=C(\C)C(=O)OCC)c1)CCC=C(C)C	> 52.1
C=C[C@@](C)(/C=C/c1ccc(OC)cc1)CCC=C(C)C	> 52.1
C=C[C@@](C)(/C=C/c1ccc(O)cc1)CCC=O	> 52.1
C=C[C@@](C)(/C=C/c1ccc(O)cc1)CC/C=C(\C)C=O	> 52.1
COc1ccc(/C=C/[C@@](C)(/C=C/c2ccc(O)c(/C=C/C(=O)OCc3ccccc3)c2)CCC=C(C)C)cc1	> 26
COc1ccc(/C=C/[C@@](C)(/C=C/c2ccc(O)c(C=O)c2)CCC=C(C)C)cc1	> 26
C=C[C@@](C)(/C=C/c1ccc(O)cc1)CCC(O)C(C)(C)O (stereo partly specified)	> 52.1

Test system: HEK293
Experiment: Cytotoxicity against HEK293 cells after 72 hrs by Cell-Titer Glo assay
Type: cell-based
Settings: Homo sapiens, HEK293, 72 h

Structure (SMILES)	EC50 [µM]
CCOC(=O)/C(C)=C/c1cc(/C=C/[C@](C)(/C=C/c2ccc(OC)cc2)CCC=C(C)C)ccc1O	> 36.6
C=C[C@@](C)(/C=C/c1ccc(O)c(/C=C(\C)C(=O)OCC)c1)CCC=C(C)C	> 36.6
C=C[C@@](C)(/C=C/c1ccc(OC)cc1)CCC=C(C)C	> 36.6
C=C[C@@](C)(/C=C/c1ccc(O)cc1)CCC=O	> 36.6
C=C[C@@](C)(/C=C/c1ccc(O)cc1)CC/C=C(\C)C=O	> 36.6
COc1ccc(/C=C/[C@@](C)(/C=C/c2ccc(O)c(/C=C/C(=O)OCc3ccccc3)c2)CCC=C(C)C)cc1	> 36.6
COc1ccc(/C=C/[C@@](C)(/C=C/c2ccc(O)c(C=O)c2)CCC=C(C)C)cc1	2.27
C=C[C@@](C)(/C=C/c1ccc(O)cc1)CCC(O)C(C)(C)O (stereo partly specified)	> 36.6

Test system: not listed separately
Experiment: Cytotoxicity against human SEM cells after 72 hrs by Cell-Titer Glo assay
Type: functional, cell-based
Settings: not given

Structure (SMILES)	EC50 [µM]
CCOC(=O)/C(C)=C/c1cc(/C=C/[C@](C)(/C=C/c2ccc(OC)cc2)CCC=C(C)C)ccc1O	> 36.6
C=C[C@@](C)(/C=C/c1ccc(O)c(/C=C(\C)C(=O)OCC)c1)CCC=C(C)C	> 36.6
C=C[C@@](C)(/C=C/c1ccc(OC)cc1)CCC=C(C)C	> 36.6
C=C[C@@](C)(/C=C/c1ccc(O)cc1)CCC=O	> 36.6
C=C[C@@](C)(/C=C/c1ccc(O)cc1)CC/C=C(\C)C=O	> 36.6
COc1ccc(/C=C/[C@@](C)(/C=C/c2ccc(O)c(/C=C/C(=O)OCc3ccccc3)c2)CCC=C(C)C)cc1	> 36.6
COc1ccc(/C=C/[C@@](C)(/C=C/c2ccc(O)c(C=O)c2)CCC=C(C)C)cc1	4.55
C=C[C@@](C)(/C=C/c1ccc(O)cc1)CCC(O)C(C)(C)O (stereo partly specified)	> 36.6

— ChEMBL document CHEMBL3779792, “Anti-proliferative evaluation of monoterpene derivatives against leukemia” (Eur J Med Chem, 2016)
